# According to the supplement of paper PMC10307832:
# Experiments:
# Experiment in all cases: relative viability (nuclei count vs DMSO), 5 days (fraction); higher = more cells survive
# [1] = compound: CNC(=O)c1cc(Oc2ccc(NC(=O)Nc3ccc(Cl)c(C(F)(F)F)c3)cc2)ccn1 [Sorafenib] + Nc1ncn([C@H]2C[C@H](O)[C@@H](CO)O2)c(=O)n1 [Decitabine] (partner 2 µM)
# Outline: (§1)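 Dosing by pin tool came one day after lung cancer cell lines were seeded in 1536-well plates, using either one drug or a fixed anchor-drug dose plus five library-drug doses (not always all listed) in √10 steps. After 5 days, nuclei were counted on 4× images. Relative viability is treated-well nuclei count divided by vehicle-well nuclei count, and values are medians of duplicate plates.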
# [2] = compound: CNC(=O)c1cc(Oc2ccc(NC(=O)Nc3ccc(Cl)c(C(F)(F)F)c3)cc2)ccn1 [Sorafenib] + CS(=O)(=O)CCNCc1ccc(-c2ccc3ncnc(Nc4ccc(OCc5cccc(F)c5)c(Cl)c4)c3c2)o1 [Lapatinib] (partner 2 µM)
# Outline: as §1
# [3] = compound: CNC(=O)c1cc(Oc2ccc(NC(=O)Nc3ccc(Cl)c(C(F)(F)F)c3)cc2)ccn1 [Sorafenib] + CC1(C)CCC(c2ccc(Cl)cc2)=C(CN2CCN(c3ccc(C(=O)NS(=O)(=O)c4ccc(N[C@H](CCN5CCOCC5)CSc5ccccc5)c(S(=O)(=O)C(F)(F)F)c4)cc3)CC2)C1 [Navitoclax] (partner 0.5 µM)
# Outline: as §1
# [4] = compound: CNC(=O)c1cc(Oc2ccc(NC(=O)Nc3ccc(Cl)c(C(F)(F)F)c3)cc2)ccn1 [Sorafenib] + Cc1nc(NC(=O)N2CCC[C@H]2C(N)=O)sc1-c1ccnc(C(C)(C)C(F)(F)F)c1 [Alpelisib] (partner 2 µM)
# Outline: as §1
# [5] = compound: CNC(=O)c1cc(Oc2ccc(NC(=O)Nc3ccc(Cl)c(C(F)(F)F)c3)cc2)ccn1 [Sorafenib] + COc1cc2c(Oc3ccc(NC(=O)C4(C(=O)Nc5ccc(F)cc5)CC4)cc3F)ccnc2cc1OCCCN1CCOCC1 [Foretinib] (partner 0.25 µM)
# Outline: as §1
Cell Line,relative viability ([1]; first compound 0.08 µM),relative viability ([1]; first compound 0.253 µM),relative viability ([1]; first compound 2.53 µM),relative viability ([1]; first compound 8 µM),relative viability ([2]; first compound 0.08 µM),relative viability ([2]; first compound 0.253 µM),relative viability ([2]; first compound 2.53 µM),relative viability ([2]; first compound 8 µM),relative viability ([3]; first compound 0.08 µM),relative viability ([3]; first compound 0.253 µM),relative viability ([3]; first compound 2.53 µM),relative viability ([3]; first compound 8 µM),relative viability ([4]; first compound 0.08 µM),relative viability ([4]; first compound 0.253 µM),relative viability ([4]; first compound 2.53 µM),relative viability ([4]; first compound 8 µM),relative viability ([5]; first compound 0.08 µM),relative viability ([5]; first compound 0.253 µM),relative viability ([5]; first compound 2.53 µM),relative viability ([5]; first compound 8 µM)
COR-L23,0.417,0.374,0.501,0.332,1.08,0.795,0.921,0.914,1.03,0.898,1.1,0.485,0.83,0.758,0.79,0.637,1.13,0.982,0.937,0.765
COR-L 105,0.733,0.617,0.695,0.573,0.413,0.393,0.482,0.389,0.792,0.821,0.89,0.865,1.09,0.95,0.966,0.793,1.32,0.982,1.18,1.03
EKVX,0.339,0.362,0.378,0.305,0.248,0.2,0.249,0.229,1.13,0.882,0.884,0.963,1.09,0.886,0.872,0.828,1.09,0.748,0.672,0.606
EMC-BAC-2,0.925,–,–,0.757,0.924,0.813,0.883,0.879,1.22,1.06,1.18,1.11,–,0.73,0.707,0.702,1.02,0.819,1,0.658
EPLC-272H,0.42,0.395,0.388,0.284,1.08,0.838,1.04,0.735,1.22,1.14,1.04,0.96,0.928,0.986,1.15,0.898,0.702,0.716,0.788,0.508
H3255,0.656,0.523,0.593,0.366,0.56,0.222,0.295,0.244,0.652,0.46,0.616,0.502,0.851,0.639,0.802,0.552,1.06,–,0.829,0.567
HARA,0.633,0.465,0.592,0.461,0.838,0.625,0.825,0.638,1.17,1.08,–,1.13,0.991,0.773,0.856,0.797,0.967,0.916,0.898,0.889
HCC-15,0.679,0.631,0.723,0.321,0.816,0.777,0.831,0.617,0.748,0.713,0.804,0.522,0.86,0.932,0.955,0.575,0.999,0.933,1,0.869
HCC-78,0.752,0.634,0.608,0.596,1.06,0.755,0.815,0.86,0.814,0.731,0.739,0.84,0.373,0.297,0.367,0.423,0.632,0.537,0.801,0.905
HCC-366,0.337,0.295,0.34,0.279,1.21,0.859,0.805,1.04,1.11,0.944,1.06,1.01,0.563,0.484,0.429,0.307,0.927,0.957,0.937,0.94
HCC-827,0.316,0.3,0.323,0.331,0.23,0.191,0.155,0.237,1.04,1.04,0.984,0.905,1.07,–,0.988,0.826,1.1,0.981,1.02,1.02
HOP-62,0.253,0.22,0.186,0.198,0.928,0.872,0.879,0.93,1.14,0.758,0.761,0.814,0.995,0.775,0.765,0.794,1.05,0.916,0.749,0.676
LC-2-ad,0.881,0.789,0.762,0.59,1.05,0.878,0.587,0.314,0.343,0.413,0.418,0.218,1.02,0.863,–,0.678,0.923,0.989,0.985,0.744
LCLC-97TM1,0.235,0.224,0.165,0.252,0.678,0.707,0.701,0.603,0.356,0.373,0.323,0.313,0.237,0.247,0.184,0.198,0.959,0.837,0.897,0.926
LK-2,0.329,0.235,0.236,0.182,1.22,0.804,0.906,0.671,0.904,0.793,0.819,0.477,1.06,–,0.89,0.647,1.06,1,0.976,0.747
LOU-NH91,0.807,0.829,0.87,0.845,–,0.71,0.829,0.728,0.82,0.742,0.86,0.61,0.896,0.791,0.885,0.589,1.02,0.973,1.08,0.942

Cell Line,relative viability ([1]; first compound 0.08 µM),relative viability ([1]; first compound 0.253 µM),relative viability ([1]; first compound 2.53 µM),relative viability ([1]; first compound 8 µM),relative viability ([2]; first compound 0.08 µM),relative viability ([2]; first compound 0.253 µM),relative viability ([2]; first compound 2.53 µM),relative viability ([2]; first compound 8 µM),relative viability ([3]; first compound 0.08 µM),relative viability ([3]; first compound 0.253 µM),relative viability ([3]; first compound 2.53 µM),relative viability ([3]; first compound 8 µM),relative viability ([4]; first compound 0.08 µM),relative viability ([4]; first compound 0.253 µM),relative viability ([4]; first compound 2.53 µM),relative viability ([4]; first compound 8 µM),relative viability ([5]; first compound 0.08 µM),relative viability ([5]; first compound 0.253 µM),relative viability ([5]; first compound 2.53 µM),relative viability ([5]; first compound 8 µM)
LU99A,0.86,0.91,–,0.606,1.16,0.998,0.952,0.895,0.811,0.669,0.72,0.579,0.58,0.435,0.468,0.453,0.741,0.758,0.78,0.728
LXF-289,0.379,0.38,–,0.329,0.91,0.831,0.938,–,0.971,0.959,0.999,0.943,1.09,1.04,1.05,1.02,–,0.992,1.06,0.943
NCI-H23,0.269,0.292,0.302,0.26,1.23,1.07,1.02,0.908,0.996,0.768,0.806,0.705,0.74,0.632,0.745,0.498,1.03,0.977,0.833,0.871
NCI-H322M,0.69,0.788,0.823,0.739,0.597,0.639,0.727,0.665,1.19,1.25,1.34,1.16,0.815,0.916,0.877,0.84,1.19,0.994,1.14,1.05
NCI-H460,0.472,0.447,0.457,0.357,1.02,0.868,0.915,0.807,1.2,1.02,1.12,0.231,0.594,0.643,0.566,0.103,0.972,0.997,0.972,0.622
NCI-H520,–,0.421,0.446,0.299,0.92,0.71,0.919,0.402,1.21,1.08,–,0.358,0.963,0.89,0.902,0.526,0.71,0.71,0.736,0.406
NCI-H596,0.987,1.01,1.16,1.05,1.07,1.11,1.52,0.995,0.892,1.13,1.02,1.02,0.471,0.447,0.521,0.509,0.73,0.958,0.866,0.66
NCI-H647,0.4,0.316,0.355,0.184,1.18,0.868,1.19,0.426,1.2,1.09,0.97,0.538,1.1,–,0.872,–,1.25,1,0.987,0.48
NCI-H727,0.988,0.947,0.805,0.781,0.777,0.597,0.771,0.486,0.604,0.632,0.675,0.369,0.623,0.579,0.702,0.326,0.936,1.11,0.909,0.739
NCI-H838,0.507,0.454,0.429,0.373,1.1,0.961,1.16,0.823,1.23,1.26,1.29,–,1.08,1.1,1.15,0.905,1.12,1.04,1.28,0.685
NCI-H1355,0.353,0.308,0.336,0.321,1.02,0.96,1.11,1.03,0.916,0.983,0.86,0.668,0.887,0.767,0.784,0.778,1.08,0.971,0.937,–
NCI-H1395,0.732,–,0.772,0.743,1.21,0.714,1.05,0.633,1.35,1.08,1.1,1.05,1.26,–,0.981,0.695,1.08,0.931,1.04,0.854
NCI-H1437,0.536,0.524,0.626,0.393,0.865,0.654,0.773,0.346,1.05,1.03,0.91,0.438,1.01,0.922,0.905,0.546,1.26,1.17,1.13,0.742
NCI-H1651,0.658,0.564,0.577,0.501,0.912,0.696,0.849,0.365,1.04,0.985,1.04,0.472,0.979,0.981,0.996,0.547,0.923,–,0.787,0.515
NCI-H1666,0.834,0.774,0.727,0.616,0.594,0.674,0.739,0.598,1.01,0.953,0.752,0.577,0.849,0.93,0.782,0.537,0.976,0.93,–,0.889
NCI-H1734,0.479,0.445,0.484,0.431,1.06,0.991,0.951,0.663,0.858,0.721,0.721,0.492,0.685,0.654,0.633,0.568,1.05,0.769,0.682,0.41
